Data published in patent EP1724268A1, “COMPOUND HAVING TGF-BETA INHIBITORY ACTIVITY AND PHARMACEUTICAL COMPOSITION CONTAINING SAME” (KIRIN BEER KABUSHIKI KAISHA, priority 2004, dated 2005).
Like-named read-outs stand apart in the source and are kept apart here.

Tested on: TGFβ signal
Experiment: TGFβ signal inhibitory activity, (SBE)4-Luc reporter in A549 cells (Test Examples 1A and 1B)
Format: cell-based, human
Conditions: Homo sapiens
How it was run: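 Compounds at 3 µM and 10 µM (some 1 µM) were added with 2 ng/ml TGFβ-1 to A549 cells stably expressing an SBE-driven luciferase, then cultured 4 hr. Chemiluminescent luciferase signal gave % inhibition versus TGFβ-alone and no-TGFβ controls.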

[1] = A549, compounds of Reference Examples (Test Example 1B), read-out: TGFβ inhibition rate, %
[2] = A549, 10 µM, compounds of Reference Examples (Test Example 1B), read-out: TGFβ inhibition rate, %

Row | SMILES | inhibition at 3 µM [1] [%] | inhibition at 10 µM [2] [%] | inhibition at 10 µM (A549, read-out: TGFβ inhibition rate, %) [%]
1 | COc1cc2c(Oc3cc4ccccc4nc3C)ccnc2cc1OCCN1CCCC(C(N)=O)C1 (stereo not drawn) [Compound r360] | 100 | 100 | –
2 | CCOC(=O)C1CCCN(CCOc2cc3nccc(Oc4cc5ccccc5nc4C)c3cc2OC)C1 (stereo not drawn) [Compound r361] | 96 | 100 | –
3 | COc1cc2c(Oc3cc4ccccc4nc3C)ccnc2cc1OCCN1CCC(C(N)=O)CC1 [Compound r362] | 100 | 100 | –
4 | CCOC(=O)C1CCN(CCOc2cc3nccc(Oc4cc5ccccc5nc4C)c3cc2OC)CC1 [Compound r363] | 100 | 100 | –
5 | COc1cc2c(Oc3cc4ccccc4nc3C)ccnc2cc1OCCN1CCC(O)CC1 [Compound r364] | 100 | 100 | –
6 | COc1cc2c(Oc3cc4ccccc4nc3C)ccnc2cc1OCCN1CCOCC1 [Compound r366] | – | – | 100
7 | COc1cc2c(Oc3cc4ccccc4nc3C)ccnc2cc1OCCN1C(=O)c2ccccc2C1=O [Compound r367] | 95 | 98 | –
8 | COc1cc2c(Oc3cc4ccccc4nc3C)ccnc2cc1OCCn1ccnc1 [Compound r368] | 100 | 100 | –
9 | COc1cc2c(Oc3cc4ccccc4nc3C)ccnc2cc1OCCO [Compound r369] | 99 | 100 | –
10 | COc1cc2c(Oc3cc4ccccc4nc3C)ccnc2cc1OCC(N)=O [Compound r370] | 85 | 99 | –
11 | COC(=O)COc1cc2nccc(Oc3cc4ccccc4nc3C)c2cc1OC [Compound r371] | 28 | 90 | –
12 | CCOC(=O)COc1cc2nccc(Oc3cc4ccccc4nc3C)c2cc1OC [Compound r372] | 14 | 93 | –
13 | CCOC(=O)C(Oc1cc2nccc(Oc3cc4ccccc4nc3C)c2cc1OC)C(=O)OCC [Compound r373] | 48 | 86 | –
14 | COc1cc2c(Oc3cc4ccccc4nc3C)ccnc2cc1OC(CO)CO [Compound r374] | 26 | 79 | –
15 | COc1cc2c(Oc3cc4ccccc4nc3C)ccnc2cc1OCCCCl [Compound r375] | 84 | 100 | –
16 | COc1cc2c(Oc3cc4ccccc4nc3C)ccnc2cc1OCCCN [Compound r376] | 100 | 100 | –
17 | COc1cc2c(Oc3cc4ccccc4nc3C)ccnc2cc1OCCCNC(=N)N [Compound r377] | 93 | 100 | –
18 | COc1cc2c(Oc3cc4ccccc4nc3C)ccnc2cc1OCCCN1CCCCC1 [Compound r378] | 100 | 100 | –
19 | COc1cc2c(Oc3cc4ccccc4nc3C)ccnc2cc1OCCCN1CCOCC1 [Compound r379] | 100 | 100 | –
20 | COc1cc2c(Oc3cc4ccccc4nc3C)ccnc2cc1OCCCN1C(=O)c2ccccc2C1=O [Compound r380] | 50 | 89 | –
21 | COc1cc2c(Oc3cc4ccccc4nc3C)ccnc2cc1OCCCn1ccnc1 [Compound r381] | 100 | 100 | –
22 | COc1cc2c(Oc3cc4ccccc4nc3C)ccnc2cc1OCCCO [Compound r382] | 100 | 100 | –
23 | COc1cc2c(Oc3cc4ccccc4nc3C)ccnc2cc1OCC1CO1 (stereo not drawn) [Compound r383, 6-Methoxy-4-(2-methyl-quinolin-3-yloxy)-7-oxilanyl methoxy-quinoline] | 97 | 100 | –
24 | COc1cc2c(Oc3cc4ccccc4nc3C)ccnc2cc1OC[C@@H](O)CO [Compound r385] | 100 | 100 | –

Row | SMILES | inhibition at 3 µM [1] [%] | inhibition at 10 µM [2] [%] | inhibition at 10 µM (A549, read-out: TGFβ inhibition rate, %) [%]
25 | COc1cc2c(Oc3cc4ccccc4nc3C)ccnc2cc1OC[C@H](O)CO [Compound r386] | 99 | – | –
26 | COc1cc2c(Oc3cc4ccccc4nc3C)ccnc2cc1OCC(CO)CO [Compound r387] | 99 | 100 | –
27 | COc1cc2c(Oc3cc4ccccc4nc3C)ccnc2cc1OCC(CO)(CO)CO [Compound r388] | 88 | 100 | –
28 | COc1cc2c(Oc3cc4ccccc4nc3C)ccnc2cc1OCC(CO)(CO)CBr [Compound r389] | 100 | 100 | –
29 | COc1cc2c(Oc3cc4ccccc4nc3C(C)=O)ccnc2cc1O [Compound r390] | 16 | 64 | –
30 | COc1cc2c(Oc3cc4ccccc4nc3C(C)=O)ccnc2cc1OCCN1CCOCC1 [Compound r391] | 99 | 100 | –
31 | COc1cc2c(Oc3cc4ccccc4nc3C(C)=O)ccnc2cc1OCCO [Compound r392] | 93 | 100 | –
32 | COc1cc2c(Oc3cc4ccccc4nc3C(C)=O)ccnc2cc1OCCN1CCCC(O)C1 (stereo not drawn) [Compound r393] | 100 | – | –
33 | COc1cc2c(Oc3cc4ccccc4nc3C(C)=O)ccnc2cc1OCC1CO1 (stereo not drawn) [Compound r394] | 83 | 100 | –
34 | COc1cc2c(Oc3cc4ccccc4nc3C(C)=O)ccnc2cc1OCC(O)CO (stereo not drawn) [Compound r395] | 96 | 100 | –
35 | COc1cc2c(Oc3cc4ccccc4nc3C(C)=O)ccnc2cc1OCC(CO)CO [Compound r396] | 96 | – | –
36 | COc1cc2c(Oc3cc4cccnc4nc3C)ccnc2cc1OCc1ccccc1 [Compound r397] | 71 | 100 | –
37 | COc1cc2c(Oc3cc4cccnc4nc3C)ccnc2cc1OCCCl [Compound r398] | 78 | 97 | –
38 | COc1cc2c(Oc3cc4cccnc4nc3C)ccnc2cc1OCCN1CCCC(O)C1 (stereo not drawn) [Compound r399] | 99 | 100 | –
39 | COc1cc2c(Oc3cc4cccnc4nc3C)ccnc2cc1OCCO [Compound r400] | 82 | 100 | –
40 | COc1cc2c(Oc3cc4cccnc4nc3C)ccnc2cc1OCC1CO1 (stereo not drawn) [Compound r401] | 24 | 76 | –
41 | COc1cc2c(Oc3cc4cccnc4nc3C)ccnc2cc1OCCCO [Compound r402] | 90 | 100 | –
42 | COc1cc2c(Oc3cc4cccnc4nc3C)ccnc2cc1OCC(O)CO (stereo not drawn) [Compound r403] | 27 | 66 | –
43 | COc1cc2c(Oc3cc4cccnc4nc3C)ccnc2cc1OCC(CO)CO [Compound r404] | 29 | 72 | –
44 | COc1cc2c(Oc3cc4cccnc4nc3C)ccnc2cc1OCCCCO [Compound r405] | 92 | 100 | –
45 | COc1cc2c(Oc3cc4cnccc4nc3C)ccnc2cc1OCc1ccccc1 [Compound r406] | 56 | 96 | –
46 | COc1cc2c(Oc3cc4cnccc4nc3C)ccnc2cc1OCCO [Compound r407] | 71 | 97 | –
47 | COc1cc2c(Oc3cc4cnccc4nc3C)ccnc2cc1OCC(O)CO (stereo not drawn) [Compound r408] | 38 | 79 | –
